Consider one substance from US20150037285A1, “METHODS FOR EFFICIENT TRANSFER OF VIABLE AND BIOACTIVE MICROBIOTA” (NEW YORK UNIVERSITY, priority 2013, published 2015).

The test system of the test is C57BL/6J mice. The test can be described thus: Sub-therapeutic antibiotic treatment (STAT) in drinking water, body composition versus Control drinking water. The settings on record: STAT penicillin versus Control drinking water. It counts as in vivo. The text has this: C57BL/6J (Jackson Labs, Bar Harbor Me.) mice either received no antibiotics (control) or continuous subtherapeutic antibiotic treatment (STAT) with penicillin in their drinking water. Mice were weaned at 4 weeks onto normal chow (13.2% fat, 5053 PicoLab Rodent Diet 20, LabDiet, Brentwood, Mo.) then changed to a high fat diet (45% kcal from fat, D12451, Research Diets, New Brunswick, N.J.) at 6 weeks of life. At 18 weeks of age, the three animals with weight at or closest to the median were selected as cecal content donors from each group (Control, n=7; STAT, n=8). Donor mice were humanely euthanized, and the proximal ⅓ of the cecum was aseptically removed and immediately (less than 1 minute) placed in reduced (no oxygen), sterile liquid dental transport media (Anaerobe Systems, Morgan Hill Calif.). The cecal samples in anaerobic transport media were brought into an anaerobic chamber within an hour of collection (Sheldon, Cornelius Oreg.). The three cecal samples from each group (STAT or Control) were pooled, and reduced, sterile saline was added to a final volume of 8 mL, of which 3 mL was used for microbiota transfer. To maintain viability of anaerobic organisms, vials containing the inoculum were not opened. […]
Mice were fed normal chow, then switched to high fat diet at 6 weeks of age. […] Microbiota recipient mice were given a high fat diet and monitored for 5 weeks. […]

For penicillin, the Body composition entry is listed as “changes in body composition”.
